We go through one molecule from US20230263748A1, “APPLICATION OF BENFLUMETOL AND DERIVATIVES THEREOF IN TREATMENT OF CORONAVIRUS INFECTION” (ACADEMY OF MILITARY MEDICAL SCIENCES, priority 2020, published 2023).

Like-named read-outs stand apart in the source and are kept apart here.

The subject of one data set is Vero E6 cells. Kind of data set: Detection of drug cytotoxicity by CCK-8 kit. It is filed as cell-based. The following applies: for Cell viability (% of negative control): Vero E6, 48 h. As for the experimental part:
The detection of drug cytotoxicity was performed by CCK-8 kit (Beoytime). Specific steps were as follows: • (1) 1×10^4 Vero E6 (ATCC) cells were inoculated in a 96-well plate and cultured at 37° C. for 8 hours. • (2) The drug was diluted with DMSO to obtain a stock solution with an appropriate concentration, and then diluted with MEM medium (purchased from Gibco, Cat. No. 10370021) containing 2% FBS (purchased from Gibco, Cat. No. 16000044) to the same concentration as that for the drug treatment. The original medium in the 96-well plate was discarded, 100 μL of drug-containing MEM medium was added to the cells, and three replicate wells were set for each concentration. Negative control (adding DMSO and medium to the cell wells, without adding drug) and blank control (no cells, adding DMSO and medium) were set. After the drug was added, the cells were cultured at 37° C. for 48 hours. • (3) 20 μL of CCK-8 solution (Beoytime) was added to the wells to be tested, mixed gently without generating air bubbles, and incubation was continued at 37° C. for 2 hours. OD450 was read on a microplate reader (purchased from Molecular Devices, model: SpectraMax M5), and cell viability was calculated:
Cell viability (%)=(A(drug treatment group)−A(blank control))/(A(negative control)−A(blank control))×100% • wherein A represents reading of microplate reader.
A general note: Tetrazolium dyes change colour on reduction, which living cells bring about.

A further data set deals with SARS-CoV-2. It is filed as cell-based. The settings on record: for Viral genome copy number (MOI = 0.05): supernatant.

With `CCCCN(CCCC)CC(O)c1cc(Cl)cc2c1-c1ccc(Cl)cc1/C2=C/c1ccc(Cl)cc1` (centres unmarked) [benflumetol], the “Cell viability (% of negative control)” value in the data set with Vero E6 cells (0.78 μM) was 92.88%; with Vero E6 cells (1.56 μM), 94.55%; in the data set on Vero E6 cells (3.13 μM), 96.69%; in the data set with Vero E6 cells (6.25 μM), 106.70%; in the data set on Vero E6 cells (12.5 μM), 108.69%; in the data set with Vero E6 cells (25 μM), 113.54%. Further, the entries for the “Cell viability (% of negative control)” value in the data set with Vero E6 cells (50 μM) and in the data set with Vero E6 cells (100 μM) were 115.52% and 122.12%, respectively. In addition, the “Toxic effect on the cells (in words)” value in the data set with Vero E6 cells (all test concentrations) is reported as “no toxic effect on the cells at all concentrations”. In addition, the “Viral genome copy number (MOI = 0.05)” value worked out at 125717580 in the data set with SARS-CoV-2 (3.13 μM, Vero E6 cells, 48 h after infection); 87462582 in the data set with SARS-CoV-2 (6.25 μM, Vero E6 cells, 48 h after infection); 87790130 in the data set with SARS-CoV-2 (12.5 μM, Vero E6 cells, 48 h after infection); 48801530 in the data set on SARS-CoV-2 (25 μM, Vero E6 cells, 48 h after infection); 20512679 with SARS-CoV-2 (50 μM, Vero E6 cells, 48 h after infection); 2927366 with SARS-CoV-2 (100 μM, Vero E6 cells, 48 h after infection). Also, the “Inhibition of viral RNA load on cells, dose dependence (in words)” value in the data set with SARS-CoV-2 (Vero E6 cells, 48 h after infection, FIG. 1) was “the inhibitory activity was dose-dependent”. Besides, the “Inhibition of replication of the SARS-CoV-2 virus genome in the infection supernatant (in words)” value with SARS-CoV-2 (at 100 μM, 50 μM and 25 μM) was “effectively inhibit the replication of the SARS-CoV-2 virus genome”.
